Data published in US9353157B2 (priority 2007, dated 2016).
“And” between values parts separate entries of the source, which are not always exact repeats. Equal entries are not always repeated. Ends that are not written are not given here.

Tests used:
[1] = test system: H3N2 influenza A/Cal/07/04; parameters: species or system ferret; details: in vivo; for ferrets with significant/severe respiratory distress (high fever, sneezing): 0.3 mg/kg
influenza A virus = assay: Plaque reduction / virus infectivity assays, influenza A virus (strain not specified); assay type: cell-based; details: for IC50: normal-sized plaques, read-out: potency in virus infectivity assays, normal-sized plaques
Procedure: (§1) Using an immunoplaque assay with AVICEL® microcrystalline cellulose as the overlay (Matrosovich et al., 2006), plaques are detected by fixing the monolayers and staining with a specific antibody to the influenza virus nucleoprotein. In the peptide inhibition assay, peptide is preincubated with about 100 plaque forming units (pfu) of the virus for approximately 1 hour, then used to infect the monolayers. Two conditions were used for the incubation: (1) standard condition in which the peptide is included in the overlay at the same concentration that was used in the preincubation step, or (2) a condition in which the peptide is not included in the overlay.
(§2) F3 was evaluated for inhibition of multiple subtypes of influenza A viruses utilizing Madin-Darby Canine Kidney (“MDCK”) cell plaque assays performed using the A/WSN/33 (H1N1) and A/Udorn/72 (H3N2) subtypes of influenza A virus. Dilutions of 50 μM to 2.5 μM of F3 and the randomly scrambled control peptide (SEQ ID NO: 14) were used to evaluate the effects of these peptides on viral infectivity. Six dilutions of F3 and of the control peptide were tested against the H1N1 viral subtype; and another six dilutions of each peptide were tested against the H3N2 viral subtype.

influenza A/Cal/07/04 = test system: influenza A/Cal/07/04; parameters: species or system ferret; details: in vivo; for ferrets with significant respiratory distress, high fever, sneezing / signs of influenza: 0.3 mg/kg
[2] = test system: influenza A/PR/8/34 (H1N1); assay: Inhibition of influenza virus-induced hemagglutination, A/PR/8/34; assay type: cell-based; details: for concentration inhibiting influenza virus-induced hemagglutination: optimal numbers of red blood cells and concentrations of virus
Procedure: Studies have been conducted with various influenza strains to better understand the mechanism of action of the peptides of the invention, e.g., to determine which step in the viral replication cycle is inhibited by F3, F1, and related influenza virus inhibitory peptides. At optimal numbers of red blood cells and concentrations of influenza A/PR/8/34 (H1N1), both F3 and F1 inhibited influenza virus-induced hemagglutination at about 10 μM concentrations.

H1N1 influenza A virus = assay: MDCK cell immunoplaque / plaque reduction assay, H1N1; assay type: cell-based; details: H1 influenza A virus subtype
Procedure: as §1, §2
(§3) At low nM concentrations (<10 nM) for condition (1), or low μM ([…]) for condition (2), the presence of “mini-plaques” were apparent.

H3N2 influenza A virus = assay: MDCK cell immunoplaque / plaque reduction assay, H3N2; assay type: cell-based; details: H3 influenza A virus subtype
Procedure: as §1, §2, §3

[3] = test system: recombinant H5N1 influenza virus
[4] = test system: influenza B (B/Shanghai/361/2002)
[5] = test system: influenza B (B/Shanghai/10/2003)

For “SWLVNKIYLTDDEVEL (Scrambled version of residues 84-99 of influenza A/H3 HA2) [scrambled control peptide, reference compound]”, the “ferrets displaying significant nasal discharge” value [1] was 100%, the “ferrets presenting with lethargy” value [1] was 50% and the “ferrets with significant/severe respiratory distress (high fever, sneezing)” value [1] was “all”. The anti-viral properties (influenza A virus) was “no discernable anti-viral properties”, the “inhibition of influenza A virus plaque formation” value (influenza A virus; under any condition (peptide in overlay or not)) was “did not inhibit” and the “lung presentation (gross pathology)” value (influenza A/Cal/07/04) was “evidence of inflammation”. The “tissue pathology (histopathology)” value (influenza A/Cal/07/04) was “infiltrations, bronchial inflammation, with bronchial exudates”, the “ferrets with significant respiratory distress, high fever, sneezing / signs of influenza” value (influenza A/Cal/07/04) was “all 12” and the inhibition of hemagglutination ([2]; at any concentration) was “did not inhibit”.

For VDDGFLDIWTYNAELLVLL [F1], the IC50 (influenza A virus) was ~0.2 nM, the “antiviral activity in plaque assays” value (H1N1 influenza A virus) was “potent (picomolar)” and the “antiviral activity in plaque assays” value (H3N2 influenza A virus) was “potent (picomolar)”. The “concentration inhibiting influenza virus-induced hemagglutination” value [2] was “about 10 μM”.

In the case of VEDTKIDLWSYNAELL-NH2 [F3], the “clinical signs of influenza” value [1] is reported as “no clinical signs of influenza”, the “ferrets with very mild respiratory signs with slight fever” value [1] is reported as 2/5 and 1/6 and the “ferrets with significant/severe respiratory distress (high fever, sneezing)” value [1] is reported as “none”. The anti-viral properties (influenza A virus) was “potent anti-viral properties”, the “inhibition in plaque reduction assays” value (influenza A virus) was “picomolar inhibition” and the “concentration at which mini-plaques were apparent” value (influenza A virus; condition (1): peptide included in the overlay) was < 10 nM. For the same substance, the IC50 (influenza A virus) was ~0.2 nM, the IC50 [3] was < 5 nM and the IC50 [4] was < 5 nM. The “animals that developed mild signs of influenza” value (influenza A/Cal/07/04) was “two”, the “lung presentation (gross pathology)” value (influenza A/Cal/07/04) was “normal lung presentations” and the “pathological responses (respiratory distress, nasal discharge, activity), FIG. 6” value (influenza A/Cal/07/04) was “significantly reduced pathological responses”. The “reduction of peak titers of influenza virus in nasal washes” value (influenza A/Cal/07/04) was “greater than 2.0 log10”, the “reduction of peak titers of influenza virus in the lungs” value (influenza A/Cal/07/04) was “greater than 6.0 log10” and the “spread of the virus to the lower respiratory tract and to other organs” value (influenza A/Cal/07/04) was “effectively blocked”. The “tissue pathology (histopathology)” value (influenza A/Cal/07/04) was “markedly reduced pathology”, the “ferrets with significant respiratory distress, high fever, sneezing / signs of influenza” value (influenza A/Cal/07/04) was “none” and the IC50 [5] was < 5 nM. The “concentration inhibiting influenza virus-induced hemagglutination” value [2] was “about 10 μM”.
